Where two headings read alike, the source gives them in different places. Values belong to the molecule of their own block, whether it stands above or below them.
Assays:
human MrgX1 receptor = molecular target: T1, human MrgX1 receptor (Homo sapiens, UniProt Q96LB2); assay: IP1 Cellular Assay for EC50 Determination Against hMrgX1 by HTRF; type: cell-based; details: in presence of EC15 of BAM8-22; for EC50: HEK293 cells stably expressing hMrgX1, geometric mean (SEM, n), read-out: Relative EC50 (SEM, n)
T1 construct: expressed in transfected cells
Method: IP1 Cellular Assay for EC50 Determination Against hMrgX1 by HTRF
Cell plating: HEK293 cells stably expressing the recombinant human MrgX1 receptor are expanded in culture flasks (Corning, T150), using growth media containing DMEM with glutamine (GIBCO™, Cat. #11960-044) supplemented with 10% heat-inactivated FBS (HyClone™, Cat. #CH30073), 1% penicillin/streptomycin (HyClone™, Cat. #SV30010; 10,000 U/mL penicillin; 10,000 μg/mL streptomycin in 0.85% NaCl), 20 mM HEPES (GIBCO™, Cat. #15530122) and 0.3 mg/mL G418 (GIBCO™, Cat. #11811031). When cell monolayers achieve a level of 80-90% confluence, monolayers are washed once with 10 mL of DPBS (HyClone™, Cat. #14190-144), dissociated using TrypLE™ Express enzyme cell dissociation media (GIBCO™, Cat. #12605-010), and diluted by addition of 10 mL DPBS. Dissociated cells are transferred to a sterile 50 mL conical tube, pelleted by centrifugation at 300×g to remove the growth and dissociation media, and diluted to 1M cells/mL into DMEM for plating.
IP1 Potency and Efficacy Determination: Test compounds are dissolved in DMSO to a concentration of 10 mM and serially diluted in DMSO to obtain a 10-point concentration response stock dilution plate. Growth media is removed from the cell plate, and the stock 10-point dilution plate is diluted into media and stamped into the cell plate at a concentration 2× higher than the final test concentration of 30 μM maximum. The endogenous agonist […] (Tocris-BioScience® Cat. #1763) is diluted to the EC15, determined independently at a minimum of n=3, into the cell plate and incubated at room temperature for 120 min. Subsequently, half the volume each of anti-IP1 cryptate and d2-labeled IP1 in lysis buffer, supplied with the IP-One Gq Kit (CisBio Cat. #62IPAPEC) are added to the cell plate to initiate cell lysis, and incubated for 60 min at room temperature in the dark. At that point, fluorescence is determined at 620 and 665 nm (˜100 μs following laser excitation).
Data Analysis: Fluorescent ratios are determined as the ratio of the fluorescence emission at […] and converted to IP1 concentration, using the IP1 standard curve generated in a separate plate, following the manufacturer's instructions. The IP1 concentration is then plotted as a function of compound concentration. Potentiator potency (EC50) is defined as the compound concentration, in the presence of the EC15 of the endogenous agonist […], resulting in 50% of the increase in IP1 concentration achieved by a saturating concentration of […], and is determined by using Genedata software (GeneData AG, Basel Switzerland) fitting the following equation to the 10-point CRC, where y is the IP1 concentration determined for a given compound concentration, [L] denotes the concentration of test compound and Max is the maximum increase achieved by a saturating concentration of […]: Y=Max*[L]/(EC50+[L]) EC50 values are reported as the geometric mean in nM (SEM, n).

[1] = In Vivo Determination of Kp,uu,brain in Mice; set-up: species or system mouse; details: for Kp uu at 2 h / concentration at 2 h: male, mouse; for Kp uu at 2 h: C57Bl/6, brain/plasma; for concentration at 2 h: C57Bl/6, mouse, po
Text: In Vivo Determination of Kp,uu,brain in Mice
Unbound brain-to-plasma partition coefficient (Kp,uu,brain) is one of the key pharmacokinetic parameter for evaluating a compound's ability to cross the blood-brain barrier (BBB). It is typically measured in pre-clinical species using the following methodology. Kp,uu,brain values indicate the fraction of free drug in plasma that partitions across the BBB.
Subjects: The subjects for these studies are 12 male C57Bl/6 mice (Envigo, Indianapolis, IN, USA) between 8-10 weeks old at time of test. Mice are housed in groups of 4 in high density plastic home cages. Food and water is available ad libitum. The rooms are maintained at 73° F. with 30-70% relative humidity and kept on a light/dark cycle of 0600-1800 h. Agent: The compound of Example 2 is prepared at 0.3, 1, and 3 mg/ml in the 1% HEC, 0.25% TWEEN®80, 0.05% DOWSIL™ vehicle in water. Prepared compound is sonicated in water bath for 30 min until a suspension is formed. Mice are dosed at 10 ml/kg for a respective 3, 10 or 30 mg/kg dose. Dosing and Tissue Collection: For this experiment, four mice per dosing group receive oral dosing of either: 3, 10, or 30 mg/kg of the compound of Example 2. Mice are euthanized at 2 h post-dosing via CO2 asphyxiation, plasma samples are collected via cardia puncture, and mouse brains removed, weighed, and frozen on dry ice. Blood samples are stored in EDTA tubes on wet ice and centrifuged at 15 k rpm for 10 min. Plasma is collected, plated in a 96-well plate, and frozen at −80° C.
Pharmacokinetic sampling: Plasma and brain samples obtained are analyzed for Example 2 using an LC-MS/MS method (Q2 Solutions, Indianapolis, IN, USA). Plasma samples are extracted using protein precipitation. The lower limit of quantification is 25 ng/mL, and the upper limit of quantification is 5000 ng/mL. Brain samples are homogenized, and the analyte is extracted using protein precipitation. The lower limit of quantification is 4 ng/g and the upper limit of quantification is 200000 ng/g.
Analysis and Results: Kp,uu,brain is calculated for each time point from the expression below where individual components are derived from a combination of in vitro and in vivo measurements carried out as described above:
[formula] where Ctotal,brain, Cu,brain, Ctotal,plasma, and Cu,plasma are total and unbound brain and plasma concentrations, and fu,brain and fu,plasma are fractions unbound in brain and plasma, respectively.

[2] = Plasma and brain homogenate protein binding by equilibrium dialysis; type: in vitro ADME, mouse
Method: Determination of plasma and brain protein binding: Mouse plasma and brain homogenate protein binding is determined in vitro using equilibrium dialysis, as described elsewhere [Zamek-Gliszczynski et al., J Pharm Sci, 101:1932-1940, 2012]. The results are reported as fraction unbound in plasma (fu,plasma) and brain (fu,brain) which are then utilized to calculate Kp,uu,brain as described below. Mouse fu,plasma and fu,brain of Example 2 are determined to be 0.0421 and 0.0181, respectively.

T1 sequence (Q96LB2 whole entry): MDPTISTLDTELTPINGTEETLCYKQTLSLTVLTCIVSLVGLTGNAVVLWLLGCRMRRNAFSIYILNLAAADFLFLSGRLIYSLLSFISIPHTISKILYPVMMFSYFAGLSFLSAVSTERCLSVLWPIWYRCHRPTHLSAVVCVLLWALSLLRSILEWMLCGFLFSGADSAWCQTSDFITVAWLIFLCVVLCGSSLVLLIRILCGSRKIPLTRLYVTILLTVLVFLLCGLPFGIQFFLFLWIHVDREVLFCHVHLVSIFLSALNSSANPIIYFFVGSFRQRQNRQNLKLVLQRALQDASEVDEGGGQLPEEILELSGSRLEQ

Compound: Nc1nc(Oc2c(F)cc(F)cc2F)cc(C(F)(F)F)n1 [Example 2, 4-(2,4,6-Trifluorophenoxy)-6-(trifluoromethyl)pyrimidin-2-amine]
- blood brain barrier crossing / central penetrance ([1]; 2 h post-oral administration in mice): crosses the blood brain barrier and has central penetrance
- Kp uu at 2 h ([1]; 3 mg/kg oral): 0.506 ± 0.107
- Kp uu at 2 h ([1]; 10 mg/kg oral): 0.586 ± 0.116
- Kp uu at 2 h ([1]; 30 mg/kg oral): 0.601 ± 0.0553
- concentration at 2 h ([1]; brain, 3 mg/kg, 3 mg/kg oral, read-out: Total brain conc. (Ctotal,brain) ± SD): 972 ± 353 nM
- concentration at 2 h ([1]; brain, 3 mg/kg, 3 mg/kg oral, using fu,brain 0.0181, read-out: Unbound brain conc. (Cu,brain) ± SD): 17.6 ± 6.39 nM
- concentration at 2 h ([1]; brain, 10 mg/kg, 10 mg/kg oral, read-out: Total brain conc. (Ctotal,brain) ± SD): 3900 ± 1800 nM
- concentration at 2 h ([1]; brain, 10 mg/kg, 10 mg/kg oral, using fu,brain 0.0181, read-out: Unbound brain conc. (Cu,brain) ± SD): 55.4 ± 32.5 nM
- concentration at 2 h ([1]; brain, 30 mg/kg, 30 mg/kg oral, read-out: Total brain conc. (Ctotal,brain) ± SD): 13700 ± 4200 nM
- concentration at 2 h ([1]; brain, 30 mg/kg, 30 mg/kg oral, using fu,brain 0.0181, read-out: Unbound brain conc. (Cu,brain) ± SD): 248 ± 75.9 nM
- concentration at 2 h ([1]; plasma, 3 mg/kg, 3 mg/kg oral, read-out: Total plasma conc. (Ctotal,plasma) ± SD): 809 ± 140 nM
- concentration at 2 h ([1]; plasma, 3 mg/kg, 3 mg/kg oral, using fu,plasma 0.0421, read-out: Unbound plasma conc. (Cu,plasma) ± SD): 34.1 ± 5.94 nM
- concentration at 2 h ([1]; plasma, 10 mg/kg, 10 mg/kg oral, read-out: Total plasma conc. (Ctotal,plasma) ± SD): 2770 ± 651 nM
- concentration at 2 h ([1]; plasma, 10 mg/kg, 10 mg/kg oral, using fu,plasma 0.0421, read-out: Unbound plasma conc. (Cu,plasma) ± SD): 117 ± 27.4 nM
- concentration at 2 h ([1]; plasma, 30 mg/kg, 30 mg/kg oral, read-out: Total plasma conc. (Ctotal,plasma) ± SD): 9700 ± 2410 nM
- concentration at 2 h ([1]; plasma, 30 mg/kg, 30 mg/kg oral, using fu,plasma 0.0421, read-out: Unbound plasma conc. (Cu,plasma) ± SD): 409 ± 101 nM
- fraction unbound ([2]; mouse brain homogenate, read-out: fraction unbound in brain (fu,brain)): 0.0181
- fraction unbound ([2]; mouse plasma, read-out: fraction unbound in plasma (fu,plasma)): 0.0421
- EC50 (human MrgX1 receptor): 61 nM

Compound: Cc1c(Oc2c(F)cc(F)cc2F)nc(N)nc1C(F)(F)F [Example 4, 5-Methyl-4-(trifluoromethyl)-6-(2,4,6-trifluorophenoxy)pyrimidin-2-amine]
- EC50 (human MrgX1 receptor): 40 nM

Compound: Cc1c(Oc2c(F)cc(C#N)cc2F)nc(N)nc1C(F)(F)F [Example 5, 4-[2-Amino-5-methyl-6-(trifluoromethyl)pyrimidin-4-yl]oxy-3,5-difluoro-benzonitrile]
- EC50 (human MrgX1 receptor): 82 nM
- Max (Mean ± SEM) (human MrgX1 receptor; maximum stimulation achieved in the assay): 120 nM

Continued by falling EC50 (human MrgX1 receptor), values first:

- EC50 (human MrgX1 receptor): 104 nM
Compound: N#Cc1cc(F)c(Oc2cc(C(F)(F)F)nc(N)n2)c(F)c1 [Example 3, 4-[2-Amino-6-(trifluoromethyl)pyrimidin-4-yl]oxy-3,5-difluoro-benzonitrile]

- EC50 (human MrgX1 receptor): 72 nM
Compound: Nc1nc(Oc2c(F)cccc2F)cc(C(F)(F)F)n1 [Example 1, 4-(2,6-Difluorophenoxy)-6-(trifluoromethyl)pyrimidin-2-amine]

- EC50 (human MrgX1 receptor): 38 nM
Compound: Cc1c(Oc2c(F)cccc2F)nc(N)nc1C(F)(F)F [Example 6, 4-(2,6-difluorophenoxy)-5-methyl-6-(trifluoromethyl)pyrimidin-2-amine]

Reference: patent US11773067B2, “(Trifluoromethyl)pyrimidine-2-amine compounds” (Eli Lilly and Company, priority 2020, dated 2023)
